Measurements: patent US11571426B2, “Compositions for preventing or treating lupus” (CHONG KUN DANG PHARMACEUTICAL CORP., priority 2017, dated 2023)
Marks after values point to notes of the source that are not given here.

Experiments:
[1] = test system: TNFα secretion in LPS-stimulated human monocyte cell lines (THP-1); assay: Suppression of TNFα secretion in LPS-stimulated THP-1 (ELISA); format: cell-based
Experimental: To identify the efficacy of the inventive compounds on suppressing a TNFα secretion in immune responses, suppression of TNFα production, which was achieved by a treatment with compounds 374, 461, 500, 530 and 532 according to the present invention in LPS-stimulated human monocyte cell lines (THP-1), was quantified by means of an enzyme immuno-assay (ELISA).
Specifically, the THP-1 cell lines (ATCC) were cultured in an RPMI-1640 medium comprising 10% FBS. The cell lines were divided into a 24 well plate at a ratio of 1×10^5 cells per well, then treated with 100 ng/mL PMA (phorbol 12-myristate 13-acetate) for 24 hours, and then differentiated into macrophage. Then, the culture medium was replaced with a new one, then treated with a test drug for 24 hours, and then treated again with 10 ng/mL LPS (E. Coli, O55:B5) for four hours for stimulation. After that, supernatant was taken and used to measure the amount of TNFα secreted from the cells by means of a Human TNFα Instant ELISA kit (eBioscience, BMS223INST) according to a protocol provided by a manufacturer.

[2] = test system: CTLA4 (cytotoxic T-lymphocyte-associated protein 4) in the regulatory T cells; assay: CTLA4 expression in regulatory T cells (flow cytometry); format: cell-based, mouse; conditions: 1000 nM
Experimental: To identify if the compounds according to the present invention regulate a function of regulatory T cells in immune responses, compounds 255, 280, 374, 416 and 476 were treated, and then an expression level of an immune checkpoint receptor CTLA4 (cytotoxic T-lymphocyte-associated protein 4) in the regulatory T cells was measured by means of flow cytometry.
Specifically, a six-week old C57BL6 male mice were supplied from Central Lab Animal Inc., then acclimated for one week, and then used in an experiment. A spleen was isolated from the mouse, and then treated with collagenase D (Roche, 11088866001), such that splenocytes were isolated therefrom. CD4+CD25− T cells were isolated by means of a CD4+CD25+ regulatory T cell isolation kit (Miltenyi Biotec, 130-091-041), and then CD4+CD25− T cells (at a ratio of 5×10^5 cells/well) were treated with an anti-CD3c/anti-CD28 mAb bead (T cell activation/expansion kit, Miltenyi Biotec, 130-093627) and a mouse recombinant TGF-β2 for six days, such that they were differentiated into iTreg. A test drug was simultaneously treated for six days, during which the cells were differentiated into iTreg. After that, the cells were incubated by means of anti-CD^4/anti-CD25 mAb (eBioscience, 25-0042-82, 17-0251-82) at 4° C. for 20 minutes, and then labeling was performed. […]

[3] = test system: NZB/W F1 female mice; assay: Proteinuria and UP/C in SLE model mouse; format: in vivo; conditions: positive control 5 mg/kg/day; 42 weeks old
Experimental: (§1) 80 NZB/W F1 female mice (four weeks old) were purchased from Jackson Laboratory and maintained in an SPF breeding room with five mice per cage. Their weight and urine protein were measured at 24 weeks after birth (right before administration), and then all the animals except those having too much urine protein were divided into groups as shown in a table 2 below such that the urine protein and weight might be evenly distributed among the groups.
(§2) Then, the mice were administered as described in the table 2 once a day for about 19 weeks from 24 weeks after birth to 42 weeks after birth.
(§3) The fresh urine of mice was collected before and after administration every two weeks, while blood collection was performed before and after administration every four weeks. The serum was prepared by centrifugation of the collected blood and then kept at −70° C.
A urine creatinine concentration was obtained by diluting the urine 100-fold, then measuring the concentration thereof by means of a serum chemistry analyzer (Dri-CHEM 3000 colorimetric analyzer, Fujifilm), and then calibrating the measured value using a dilution factor.

[4] = test system: NZB/W F1 female mice; assay: T cell populations in spleen (FACS) in SLE disease mouse; format: in vivo; conditions: positive control 5 mg/kg/day; vs negative control
[5] = test system: NZB/W F1 female mice; assay: Serum chemistry after long-term administration; format: in vivo, mouse; conditions: group P, 5 mg/kg/day i.p.; serum at autopsy
Experimental: as §1, §2
Data obtained from groups were compared using a Kruskal-Wallis (†p<0.05), *p<0.05 versus C group (Mann-Whitney U-test), ALT: alanine aminotransferase, AST: aspartate aminotransferase, ALP: alkaline phosphatase, TBIL: total bilirubin, TCHOL: total cholesterol, TG: triglyceride, TP: total protein, CPK: creatine phosphokinase)

[6] = test system: NZB/W F1 female mice; assay: Serum cytokine level (Milliplex MAP kit) in SLE disease mouse; format: in vivo; conditions: group P, 5 mg/kg/day i.p., n = 13
Experimental: as §1, §2, §3
To analyze an effect of the inventive pharmaceutical composition on a change in a serum cytokine level in the SLE disease mouse, a level of GM-CSF, IFN-γ, IL-1α, IL-1β, IL-10, IL-12(p70), IL-15, IL-17a, IL-2, IL-4, IL-6, TNF-α, […], IL-22 and IL-23 in serum was measured by means of a Mouse cytokine Milliplex MAP kit (Merck Millipore), wherein the results thereof were shown in a table 3.
Data obtained from groups were compared using a Kruskal-Wallis (†p<0.05) *p<0.05 versus C group (Mann-Whitney U-test)

[7] = on increasing concentration from 100 nM to 300 nM

In the case of O=C(NO)c1ccc(CN(C(=O)N2CCOCC2)c2cccc(C(F)(F)F)c2)c(F)c1 [Compound 532, N-(2-fluoro-4-(hydroxycarbamoyl)benzyl)-N-(3-(trifluoromethyl)phenyl)morpholine-4-carboxamide], the “level of TNFα secretion” value [1, 7] is reported as “drastically decreased”.

For O=C(NO)c1ccc(CN(C(=O)N2CCOCC2)c2cccc(Br)c2)cc1 [Compound 255, N-(3-bromophenyl)-N-(4-(hydroxycarbamoyl)benzyl)morpholine-4-carboxamide], the cytotoxicity [2] was “severe cytotoxicity”.

For CCN1CCN(C(=O)N(Cc2ccc(C(=O)NO)cc2)c2cccc(C(F)(F)F)c2)CC1 [Compound 461, 4-ethyl-N-(4-(hydroxycarbamoyl)benzyl)-N-(3-(trifluoromethyl)phenyl)piperazine-1-carboxamide], the “level of TNFα secretion” value ([1]; at both 100 nM and 300 nM) was “remarkably decreased”.

In the case of C[C@H]1C[C@@H]2[C@H]([C@@H](O)C[C@@]3(C)[C@H]2CC[C@]3(O)C(=O)CO)[C@@]2(C)C=CC(=O)C=C12 [Methylprednisolone, reference compound], the “incidence rate of severe proteinuria of 300 mg/dl or more” value [3] is reported as 20%, the “decrease of ratio of CD138+ cells” value [4] is reported as 16.3% and the ALP [5] is reported as 207.45 ± 7.21 U/I. For the same compound, the ALT [5] was 24.09 ± 2.00* U/I, the AST [5] was 52.09 ± 4.25* U/I and the Albumin [5] was 2.52 ± 0.07* g/dl. The Ca [5] was 9.35 ± 0.16 mg/dL, the Glucose [5] was 189.27 ± 12.23 mg/dL and the TBIL [5] was 0.41 ± 0.09 mg/dL. The TCHOL [5] was 162.09 ± 8.97 mg/dL, the TG [5] was 251.82 ± 29.19 mg/dL and the TP [5] was 5.42 ± 0.11* g/dl. It also gave an IFN-γ in serum [6] of 0.07 ± 0.07 pg/mL, an IL22 in serum [6] of 17.68 ± 4.49 pg/mL and an IL-1α in serum [6] of 666.21 ± 146.22 pg/mL. The IL-1β in serum [6] was 0.65 ± 0.65 pg/mL, the IL-2 in serum [6] was 0.09 ± 0.09 pg/mL and the IL-4 in serum [6] was 1.49 ± 0.06 pg/mL. It also gave an IL-6 in serum [6] of 3.36 ± 0.92 pg/mL, an IL-23 in serum [6] of 22.31 ± 17.13 pg/mL and a TGF-β in serum [6] of 66007.78 ± 5207.83 pg/mL.

For O=C(NO)c1ccc(CN(C(=O)N2CCOCC2)c2cccc(F)c2)cc1 [Compound 530, N-(3-fluorophenyl)-N-(4-(hydroxycarbamoyl)benzyl)morpholine-4-carboxamide], the “level of TNFα secretion” value [1, 7] was “drastically decreased”.

O=C(NO)c1ccc(CN(C(=O)N2CCOCC2)c2cccc(CF)c2)cc1 [Compound 500, N-(3-(fluoromethyl)phenyl)-N-(4-(hydroxycarbamoyl)benzyl)morpholine-4-carboxamide] was tested, and the “level of TNFα secretion” value ([1]; at both 100 nM and 300 nM) was “remarkably decreased”.
